# Publication PMC8453745, “Human Mass Balance and Metabolite Profiling of [^14C]‐Pamiparib, a Poly (ADP‐Ribose) Polymerase Inhibitor, in Patients With Advanced Cancer” (Clinical Pharmacology in Drug Development, 2021)
# Where two headings read alike, the source gives them in different places.
# Experiments:
# [1] = unchanged pamiparib in urine and renal clearance (LC‐MS/MS); type: in vivo, human
# Procedure: Total radioactivity was analyzed at Covance Laboratories (Harrogate, North Yorkshire, UK), and metabolite profiling was conducted at Covance Laboratories (Madison, Wisconsin). Determination of pamiparib concentrations in plasma and total radioactivity in plasma and whole blood was performed predose and 0.25, 0.5, 1, 1.5, 2, 2.5, 3, 6, 12, 24, 48, 72, 96, 120, and 144 hours postdose. Pamiparib concentrations in plasma and urine were determined at Covance Laboratories (Salt Lake City, Utah) with validated liquid chromatography‐tandem mass spectrometry (LC‐MS/MS) methods.
# An aliquot of human plasma (25 μL) containing dipotassium ethylenediaminetetraacetic acid as anticoagulant or urine (25 μL) was added with the internal standard (20.0 μL of 400 ng/mL BGB‐326) in water:ACN (50:50 v/v) followed by the addition of water:ACN (50:50 v/v, 20.0 μL). […]
# Standard PK parameters of pamiparib in plasma as well as total radioactivity in blood and plasma were calculated with noncompartmental methods with Phoenix WinNonlin (version 8.1). Area under the concentration‐time curve (AUC) from time 0 to infinity (AUC0‐∞), AUC from time 0 to last quantifiable concentration (AUC0‐t), Cmax, time postdose at Cmax (tmax), t1/2, and apparent total clearance (CL/F) were calculated. Renal clearance (CLR) was calculated as Ae/AUC, where Ae was the amount of drug excreted in urine.
# [2] = safety and tolerability in patients; type: in vivo, human
# Procedure: Safety and tolerability were evaluated throughout the study, and AEs were assessed from the time of obtaining informed consent to discharge from the study and follow‐up visit or early withdrawal. Scheduled safety assessments of 12‐lead electrocardiogram, physical examination, vital signs, and clinical laboratory investigations (clinical chemistry, hematology, serology, and urinalysis) occurred before administration of the study drug and at discharge and follow‐up visit.
# CYP3A = experiment: CYP450 phenotyping in HLMs with CYP3A inhibitor ketoconazole; type: in vitro ADME, human; details: 90‐minute HLM incubation with CYP3A4 inhibitor ketoconazole (1 μM)
# Procedure: (§1) Metabolic stability in human liver microsomes (HLMs) and cytochrome P450 (CYP450) phenotyping assays were conducted in 3D BioOptima (Suzhou, China) using validated methodology, [13] to determine the intrinsic clearance and enzymes responsible for metabolism of pamiparib. HLMs for microsome stability was from BD Biosciences (Woburn, New York). For phenotyping, HLMs and recombinant P450 (rCYP) were from Corning (Woburn, New York). Pamiparib (1 μM) was incubated with pooled HLM (0.5 mg/mL), NADPH (1 mM), and MgCl2 (3 mM) terminated at 0, 5, 15, 30, 60, and 90 minutes. The intrinsic clearance was calculated as 0.693/(t1/2 × HLM concentration), where t1/2 is the half‐life of pamiparib determined in HLMs. For phenotyping in HLMs, pamiparib (1 μM) was incubated in the absence or presence of isoform‐selective inhibitors: 0.2 μM α‐naphthoflavone for CYP1A2, 2 μM clopidogrel for CYP2B6, 16 μM montelukast for CYP2C8, 10 μM sulfaphenazole for CYP2C9, 30 μM nootkatone for CYP2C19, 2 μM quinidine for CYP2D6, and 1 μM ketoconazole for CYP3A. The following isoform‐selective probe substrates served as positive controls: 40 μM phenacetin for CYP1A2, 100 μM bupropion for CYP2B6, 2 μM amodiaquine for CYP2C8, 5 μM diclofenac for CYP2C9, 40 μM S‐mephenytoin for CYP2C19, 5 μM dextromethorphan for CYP2D6, and 2 μM midazolam for CYP3A4. […] Pamiparib, M1, and M2 were analyzed by LC‐MS/MS.
# [3] = test system: CYP1A2, CYP2B6, CYP2C9, CYP2C19; experiment: CYP450 phenotyping in HLMs with all other CYP inhibitors; type: in vitro ADME, human; details: HLM incubation
# Procedure: as §1
# PARP1 = test system: PARP1; set-up: method as in PMID 33264017; details: read-out: PARP1 inhibition IC50; cited from earlier work
# PARP2 = test system: PARP2; set-up: method as in PMID 33264017; details: read-out: PARP2 inhibition IC50; cited from earlier work
# [4] = cited from earlier work
# [5] = 60‐mg single dose, n = 11, ref BGB‐290‐AU‐002, NCT02361723
smiles,measurement,setting,value
C[C@]12CCCN1CC1=NNC(=O)c3cc(F)cc4[nH]c2c1c34 [Pamiparib],"cumulative percent of pamiparib excreted unchanged in urine, geometric mean","[1]; LC‐MS/MS, over the 192‐hour study",≈ 1.7 % of the administered dose
same,CL renal,"[1]; human, urine and plasma, oral, 60 mg, calculated as Ae/AUC, read-out: renal clearance, geometric mean (converted)",0.623 mL/min
same,patients with TEAEs,[2]; 4 patients,100%
same,severity of all TEAEs,[2]; 4 patients,mild (CTCAE grade 1)
same,"TEAEs considered related to [^14C]‐pamiparib, percent of events",[2]; in 2 patients,31.3%
same,"TEAEs considered unrelated to [^14C]‐pamiparib, percent of events",[2]; in 4 patients,68.8%
same,TEAEs reported (events),[2]; in 4 patients,16
same,tolerability,"[2]; single dose 60 mg [^14C]‐pamiparib, 4 patients",well tolerated
same,deaths or serious AEs,"[2]; single dose 60 mg, 4 patients",no deaths or serious AEs
same,pamiparib remaining,CYP3A,63.1%
same,effect of all other CYP inhibitors on pamiparib metabolism,[3],nearly no effect
same,IC50,PARP1,1.3 nM
same,IC50,PARP2,0.9 nM
same,"AUC0‐inf, geometric mean",[4]; [5],32 005 ng·h/mL
same,"Cmax, geometric mean",[4]; [5],1881 ng/mL
same,pharmacokinetic profile (dose linearity),[4]; tested dose range 2.5‐120 mg,linear
same,tolerability,"[4]; up to 60 mg, patients",generally well tolerated
